In patent US20240287065A1, “COMPOUND AS CDK KINASE INHIBITOR AND USE THEREOF” (TYK MEDICINES (ZHENGZHOU) , INC., priority 2021, published 2024):
pIC50: −log10 of the molar value.

Columns and labels:
[1] = system: OVCAR3 cells; assay: Cell proliferation inhibition assay (MTT, 7 days); type: cell-based; conditions: Homo sapiens, OVCAR-3, 168 h, 7 days incubation
Outline: (§1)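 Cells were seeded per well at 3000 (MCF7, T47D), 2500 (OVCAR3) or 2000 (HCC1806) and attached overnight. Nine 3-fold compound dilutions (10000-1.52 nM before addition to cells, 0.1% DMSO medium) were applied for 7 days, refreshed on day 4, in 4 replicates. MTT (3 h) was read at 570 nm, normalised to DMSO and blank, and IC50 fitted by three-parameter curve.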

[2] = system: T47D cells; assay: Cell proliferation inhibition assay (MTT, 7 days); type: cell-based; conditions: Homo sapiens, 168 h, 7 days incubation
Outline: as §1

[3] = system: HCC1806 cells; assay: Cell proliferation inhibition assay (MTT, 7 days); type: cell-based; conditions: Homo sapiens, HCC1806, 168 h, HCC1086 [sic], 7 days incubation
Outline: as §1

[4] = system: MCF7 cells; assay: Cell proliferation inhibition assay (MTT, 7 days); type: cell-based; conditions: Homo sapiens, 168 h, 7 days incubation
Outline: as §1

[5] = molecular target: CDK6/CycD1 (Homo sapiens, UniProt Q00534); assay: Enzyme activity test; type: biochemical;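 also: values come from the source column headed CDK6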
Outline: (§2)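 Compounds ([…] DMSO stock) were preincubated 30 min at room temperature with enzyme, substrate and cofactor before ATP addition. The reaction ran 150 min at room temperature and was read on EZ Reader (mobility shift). Percent inhibition was calculated against DMSO and no-enzyme controls.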

[6] = molecular target: CDK2/CycE1 (Homo sapiens, UniProt P24941); assay: Enzyme activity test; type: biochemical;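 also: values come from the source column headed CDK2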
Outline: as §2

[7] = molecular target: CDK4/CycD3 (Homo sapiens, UniProt P11802); assay: Enzyme activity test; type: biochemical;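 also: values come from the source column headed CDK4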
Outline: as §2

Sequence of CDK4/CycD3 (P11802 whole entry, species assumed): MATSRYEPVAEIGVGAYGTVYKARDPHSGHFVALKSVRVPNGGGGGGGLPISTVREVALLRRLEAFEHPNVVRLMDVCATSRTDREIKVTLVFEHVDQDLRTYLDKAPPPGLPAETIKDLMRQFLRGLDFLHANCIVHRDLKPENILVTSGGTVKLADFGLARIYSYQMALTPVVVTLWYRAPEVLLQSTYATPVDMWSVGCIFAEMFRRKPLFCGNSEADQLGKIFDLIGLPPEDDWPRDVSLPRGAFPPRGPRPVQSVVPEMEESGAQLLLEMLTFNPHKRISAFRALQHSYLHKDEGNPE
Sequence of CDK4/CycD3 (P30281 whole entry partner, species assumed): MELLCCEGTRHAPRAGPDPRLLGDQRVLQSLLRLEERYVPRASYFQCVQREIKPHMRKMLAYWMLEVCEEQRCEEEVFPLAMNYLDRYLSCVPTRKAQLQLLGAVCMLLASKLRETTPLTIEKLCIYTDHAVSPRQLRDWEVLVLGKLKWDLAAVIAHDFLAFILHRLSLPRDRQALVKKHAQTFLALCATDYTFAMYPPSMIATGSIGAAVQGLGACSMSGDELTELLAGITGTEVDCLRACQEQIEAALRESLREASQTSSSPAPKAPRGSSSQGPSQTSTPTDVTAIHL
Sequence of CDK6/CycD1 (Q00534 whole entry, species assumed): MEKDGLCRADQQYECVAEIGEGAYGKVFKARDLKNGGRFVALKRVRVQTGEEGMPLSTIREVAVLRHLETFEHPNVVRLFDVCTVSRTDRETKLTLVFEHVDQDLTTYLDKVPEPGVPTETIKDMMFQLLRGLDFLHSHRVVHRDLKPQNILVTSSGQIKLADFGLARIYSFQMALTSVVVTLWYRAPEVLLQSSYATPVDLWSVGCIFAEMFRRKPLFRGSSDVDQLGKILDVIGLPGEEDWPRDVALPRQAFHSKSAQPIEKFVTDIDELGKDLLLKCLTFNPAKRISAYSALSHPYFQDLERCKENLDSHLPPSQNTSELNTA
Sequence of CDK6/CycD1 (P24385 whole entry partner, species assumed): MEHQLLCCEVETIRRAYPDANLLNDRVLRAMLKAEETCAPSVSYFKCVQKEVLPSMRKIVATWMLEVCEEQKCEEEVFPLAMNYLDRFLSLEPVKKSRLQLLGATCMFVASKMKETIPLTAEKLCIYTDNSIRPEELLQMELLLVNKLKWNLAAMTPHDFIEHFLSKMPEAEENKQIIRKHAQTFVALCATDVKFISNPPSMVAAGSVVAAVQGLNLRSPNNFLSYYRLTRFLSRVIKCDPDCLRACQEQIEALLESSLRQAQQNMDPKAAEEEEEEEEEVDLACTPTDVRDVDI

IC50 [1] [nM]	IC50 [2] [nM]	IC50 [3] [nM]	IC50 [4] [nM]	pIC50 [5]	pIC50 [6]	pIC50 [7]	SMILES
≤ 50	50 to 5200	50 to 5200	50 to 5200	> 8.00	> 8.00	> 8.00	C[C@@]1(O)CCC[C@H]1n1c(=O)c(OC(F)F)cc2cnc(NC3CCN(S(C)(=O)=O)CC3)nc21 [Example 3]
50 to 5200	≤ 50	50 to 5200	50 to 5200				C[C@@]1(O)CCC[C@H]1n1c(=O)c(C(F)F)cc2cnc(NC3CCN(S(C)(=O)=O)CC3)nc21 [PF-06873600, reference compound]
